Experimental data taken from patent US12281119B2, “Imidazo[2,1-f][1,2,4]triazin-4-amine derivatives as TLR7 agonist” (BEIGENE, LTD., priority 2019, dated 2025).

Each molecule was assayed against T1, human TLR7 (Homo sapiens, UniProt Q9NYK1) (assay: HEK293-Blue hTLR7 reporter assay (QUANTI-BLUE, SEAP readout)). Conditions: HEK-Blue-hTLR7 cells, QUANTI-BLUE assay (A1-A76), 24 hrs.
T1 sequence (Q9NYK1 27-1049): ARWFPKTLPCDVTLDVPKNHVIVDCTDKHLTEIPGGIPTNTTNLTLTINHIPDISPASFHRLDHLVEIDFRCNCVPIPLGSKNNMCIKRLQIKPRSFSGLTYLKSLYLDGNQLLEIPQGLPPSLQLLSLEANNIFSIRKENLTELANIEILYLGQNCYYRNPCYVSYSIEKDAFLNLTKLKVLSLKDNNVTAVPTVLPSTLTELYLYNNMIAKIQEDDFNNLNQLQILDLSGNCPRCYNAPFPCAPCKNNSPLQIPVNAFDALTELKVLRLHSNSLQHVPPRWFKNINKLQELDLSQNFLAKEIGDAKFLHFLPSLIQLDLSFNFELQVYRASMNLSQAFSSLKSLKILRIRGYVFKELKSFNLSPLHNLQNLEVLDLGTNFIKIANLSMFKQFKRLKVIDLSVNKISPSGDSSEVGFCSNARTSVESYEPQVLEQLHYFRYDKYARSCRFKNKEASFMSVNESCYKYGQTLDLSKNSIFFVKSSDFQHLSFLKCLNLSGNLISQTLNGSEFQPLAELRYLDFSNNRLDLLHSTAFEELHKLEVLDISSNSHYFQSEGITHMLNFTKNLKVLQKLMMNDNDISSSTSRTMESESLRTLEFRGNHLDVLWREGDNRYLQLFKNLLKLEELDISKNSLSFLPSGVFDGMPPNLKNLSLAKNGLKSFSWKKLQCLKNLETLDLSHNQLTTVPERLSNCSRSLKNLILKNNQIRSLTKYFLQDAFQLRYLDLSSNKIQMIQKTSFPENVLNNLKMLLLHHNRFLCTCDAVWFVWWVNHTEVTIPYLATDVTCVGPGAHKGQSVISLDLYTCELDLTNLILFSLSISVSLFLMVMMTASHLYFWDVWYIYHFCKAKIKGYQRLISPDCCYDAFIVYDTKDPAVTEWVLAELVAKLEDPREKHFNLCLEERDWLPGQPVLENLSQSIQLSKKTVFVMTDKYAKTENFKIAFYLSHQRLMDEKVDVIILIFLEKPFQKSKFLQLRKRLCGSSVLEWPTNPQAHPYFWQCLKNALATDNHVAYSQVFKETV
Type: cell-based
Design: host or cells: HEK293 (HEK-Blue-hTLR7)
Procedure: HEK293-Blue hTLR7 Reporter Assay:
HEK-Blue-hTLR7 cell line (Invivogen, Cat. No. hkb-htlr7) was designed so that the expression of the secreted embryonic alkaline phosphatase (SEAP) was induced by activating NF-κ and AP-1 via stimulating human TLR7 with TLR7 agonists.
HEK-Blue-hTLR7 cells were seeded at a density of 4×10^4 cells/well in a volume of 180 μL in a 96-well plate in DMEM (Cat. No. 11965-092) supplemented with 10% (v/v) heat-inactivated fetal bovine serum (FBS) (Gibco, 10099-1441), 100 U/ml penicillin and 100 μg/ml streptomycin (Gibco, 15140122) containing […], […] and 10% (v/v) heat-inactivated fetal bovine serum. The cells were settled for 5 hrs, then treated with increasing amounts of tested compounds at 37° C. for 24 hrs. Then 20 μL of the supernatant from each well was incubated with 180 uL Quanti-blue substrate solution at 37° C. for 10-30 mins before the activity of the SEAP was determined at 620-655 nm using a spectrophotometer. The EC50 value for each compound was calculated with GraphPad Prism software using the sigmoidal dose-response function.
With `CCCCOc1nc(N)c2ncc(Cc3ccc4c(c3)CCN(C(C)C)C4)n2n1` [Compound A8, 2-butoxy-7-((2-isopropyl-1,2,3,4-tetrahydroisoquinolin-6-yl)methyl)imidazo[2,1-f][1,2,4]triazin-4-amine] the EC50 was 3030 nM.
`CCCCOc1nc(N)c2ncc(Cc3ccc(CN4CCNCC4)cc3)n2n1` [Compound A10, 2-butoxy-7-(4-(piperazin-1-ylmethyl)benzyl)imidazo[2,1-f][1,2,4]triazin-4-amine] was tested, and the EC50 was 1170 nM.
Molecule `CCCCOc1nc(N)c2ncc(Cc3ccc(CN4CCC(N)CC4)cc3)n2n1` [Compound A43, 7-(4-((4-aminopiperidin-1-yl)methyl)benzyl)-2-butoxyimidazo[2,1-f][1,2,4]triazin-4-amine] has an EC50 of 822 nM.
Molecule `CCCCOc1nc(N)c2ncc(Cc3ccc(C4CCN(C)C4)cc3)n2n1` (stereo not shown) [Compound A66, 2-butoxy-7-(4-(1-methylpyrrolidin-3-yl)benzyl)imidazo[2,1-f][1,2,4]triazin-4-amine] has an EC50 of 387 nM.
Molecule `CCCCNc1nc(N)c2ncc(Cc3ccc(CN4CCCC4)cc3)n2n1` [Compound A67, N2-butyl-7-(4-(pyrrolidin-1-ylmethyl)benzyl)imidazo[2,1-f][1,2,4]triazine-2,4-diamine] has an EC50 of 585 nM.
With `Nc1nc(OCc2cccnc2)nn2c(Cc3ccc(CN4CCCC4)cc3)cnc12` [Compound A68, 2-(pyridin-3-ylmethoxy)-7-(4-(pyrrolidin-1-ylmethyl)benzyl)imidazo[2,1-f][1,2,4]triazin-4-amine] the EC50 was > 10000 nM.
`Nc1nc(OCCCC(F)(F)F)nn2c(Cc3ccc(CN4CCCC4)cc3)cnc12` [Compound A69, 7-(4-(pyrrolidin-1-ylmethyl)benzyl)-2-(4,4,4-trifluorobutoxy)imidazo[2,1-f][1,2,4]triazin-4-amine] showed an EC50 of 1240 nM.
For `CCCCOc1nc(N)c2ncc(Cc3cccc(CN)c3)n2n1` [Compound A70, 7-(3-(aminomethyl)benzyl)-2-butoxyimidazo[2,1-f][1,2,4]triazin-4-amine], the EC50 was > 10000 nM.
`CCCCOc1nc(N)c2ncc(Cc3ccc(CN4CCN(CCCO)CC4)cc3)n2n1` [Compound A71, 3-(4-(4-((4-amino-2-butoxyimidazo[2,1-f][1,2,4]triazin-7-yl)methyl)benzyl)piperazin-1-yl)propan-1-ol] was tested, and the EC50 was 1170 nM.
`CCCCOc1nc(N)c2ncc(Cc3cnc(OC4CCNCC4)c(C)c3)n2n1` [Compound A72, 2-butoxy-7-((5-methyl-6-(piperidin-4-yloxy)pyridin-3-yl)methyl)imidazo[2,1-f][1,2,4]triazin-4-amine] showed an EC50 of 462 nM.
For `CCCCOc1nc(N)c2ncc(C(O)c3cc(OC)ccn3)n2n1` (stereo not shown) [Compound A73, (4-amino-2-butoxyimidazo[2,1-f][1,2,4]triazin-7-yl)(4-methoxypyridin-2-yl)methanol], the EC50 was > 10000 nM.
For `CCCCOc1nc(N)c2ncc(C(O)c3ccccn3)n2n1` (stereo not shown) [Compound A74, (4-amino-2-butoxyimidazo[2,1-f][1,2,4]triazin-7-yl)(pyridin-2-yl)methanol], the EC50 was > 10000 nM.
`CCCCOc1nc(N)c2ncc(C(C)c3ccc(CN4CCCC4)cc3)n2n1` (stereo not shown) [Compound A75, 2-butoxy-7-(1-(4-(pyrrolidin-1-ylmethyl)phenyl)ethyl)imidazo[2,1-f][1,2,4]triazin-4-amine] was tested, and the EC50 was > 10000 nM.
In the case of `CCCCOc1nc(N)c2ncc(Cc3cnn(CC4CCCNC4)c3)n2n1` (stereo not shown) [Compound A76, 2-butoxy-7-((1-(piperidin-3-ylmethyl)-1H-pyrazol-4-yl)methyl)imidazo[2,1-f][1,2,4]triazin-4-amine], the EC50 is reported as > 10000 nM.

Same assay, conditions: HEK-Blue-hTLR7 cells, QUANTI-BLUE assay (C1-C6), 24 hrs
In the case of `CCCCOc1nc(N)n2ncc(Cc3cccc(CN4CCCC4)c3)c2n1` [Compound C1, 2-butoxy-8-(3-(pyrrolidin-1-ylmethyl)benzyl)pyrazolo[1,5-a][1,3,5]triazin-4-amine], the EC50 is reported as > 10000 nM.
`CCCCOc1nc(N)n2ncc(Cc3ccc(CN4CCCC4)cc3)c2n1` [Compound C2, 2-butoxy-8-(4-(pyrrolidin-1-ylmethyl)benzyl)pyrazolo[1,5-a][1,3,5]triazin-4-amine] was tested, and the EC50 was > 10000 nM.
In the case of `CCCCOc1cc2c(Cc3cnc(N4CCNCC4)c(Cl)c3)cnn2c(N)n1` [Compound C3, 5-butoxy-3-((5-chloro-6-(piperazin-1-yl)pyridin-3-yl)methyl)pyrazolo[1,5-c]pyrimidin-7-amine], the EC50 is reported as > 10000 nM.
In the case of `CCCCOc1cc(N)c2ncc(Cc3cnc(N4CCNCC4)c(C)c3)n2n1` [Compound C5, 6-butoxy-3-((5-methyl-6-(piperazin-1-yl)pyridin-3-yl)methyl)imidazo[1,2-b]pyridazin-8-amine], the EC50 is reported as > 10000 nM.
In the case of `CCCCOc1nc(N)c2[nH]cc(Cc3cnc(N4CCNCC4)c(C)c3)c2n1` [Compound C6, 2-butoxy-7-((5-methyl-6-(piperazin-1-yl)pyridin-3-yl)methyl)-5H-pyrrolo [3,2-d]pyrimidin-4-amine], the EC50 is reported as 1080 nM.

What follows are molecules tested against T2, human TLR 8 protein (Homo sapiens, UniProt Q9NR97) (assay: TLR8 stimulation determined using HEK-Blue Detection). Conditions: HEK-Blue hTLR8 cells, 16 hr, relative to Resiquimod or Motolimod maximum.
T2 construct: expressed in transfected cells; host or cells: HEK293 (HEK-Blue hTLR8)
T2 sequence (Q9NR97 27-1041): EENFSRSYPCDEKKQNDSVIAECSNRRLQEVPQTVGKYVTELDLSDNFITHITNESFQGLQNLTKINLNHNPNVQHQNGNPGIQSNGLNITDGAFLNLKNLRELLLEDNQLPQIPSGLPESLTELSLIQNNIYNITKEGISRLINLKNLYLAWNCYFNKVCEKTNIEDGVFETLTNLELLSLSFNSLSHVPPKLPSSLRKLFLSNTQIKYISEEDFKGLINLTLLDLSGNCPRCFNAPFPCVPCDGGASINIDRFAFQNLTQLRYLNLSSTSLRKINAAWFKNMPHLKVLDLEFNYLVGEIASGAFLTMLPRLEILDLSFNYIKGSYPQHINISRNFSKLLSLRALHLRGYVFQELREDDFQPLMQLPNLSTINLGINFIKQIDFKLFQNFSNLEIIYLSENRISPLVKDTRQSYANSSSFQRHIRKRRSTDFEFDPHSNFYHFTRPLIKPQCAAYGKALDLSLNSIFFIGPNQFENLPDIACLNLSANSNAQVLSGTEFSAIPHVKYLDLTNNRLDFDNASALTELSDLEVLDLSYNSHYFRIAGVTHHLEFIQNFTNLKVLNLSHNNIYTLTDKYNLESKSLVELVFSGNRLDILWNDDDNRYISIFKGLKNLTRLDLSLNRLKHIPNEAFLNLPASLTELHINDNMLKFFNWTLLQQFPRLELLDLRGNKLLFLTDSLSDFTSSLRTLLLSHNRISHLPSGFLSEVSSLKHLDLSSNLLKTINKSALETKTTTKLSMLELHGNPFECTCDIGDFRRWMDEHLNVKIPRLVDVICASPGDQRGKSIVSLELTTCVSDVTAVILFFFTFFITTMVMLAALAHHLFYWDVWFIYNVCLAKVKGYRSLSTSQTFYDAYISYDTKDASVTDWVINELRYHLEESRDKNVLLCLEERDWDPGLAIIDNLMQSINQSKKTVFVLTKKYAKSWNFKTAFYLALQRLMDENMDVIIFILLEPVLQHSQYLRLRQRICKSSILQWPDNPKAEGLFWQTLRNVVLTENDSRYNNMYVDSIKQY
Type: cell-based
Excerpt: TLR8 Stimulation Determined Using HEK-Blue Detection
This assay was designed for studying the stimulation of human TLR 8 protein in HEK-Blue hTLR8 tool cell line by monitoring the activation of NF-1B. HEK-Blue hTLR8 cells were obtained by co-transfection of the hTLR8 gene and an optimized secreted embryonic alkaline phosphatase (SEAP) reporter gene into HEK293 cells. The SEAP reporter gene was placed under the control of the IFN-β minimal promoter fused to five NF-κB and AP-1-binding sites. Stimulation with a TLR 8 ligand activates NF-κB and AP-1 which induce the expression of SEAP. Levels of SEAP can be easily determined with HEK-Blue Detection, a cell culture medium that allows for real-time detection of SEAP. HEK-Blue Detection contains all the nutrients necessary for cell growth and a specific SEAP color substrate. The hydrolysis of the substrate by SEAP produces a purple/blue color that can be measured with a spectrophotometer.
When growing to 50-80% confluency, HEK-Blue hTLR7/8 cells were plated into 96-well plate (costar 3599) at a density of 40000 cells/well. Then compounds were added with serial dilutions over 10 points with a 1 nM-10 uM final concentration range in 0.1% DMSO/HEK-Blue Detection. The plates were then incubated for 16 hr at 37° C. in 5% CO2. The optical density at 620-655 nm was read on BMG PHERAstar FSX instrument. The EC50 for each compound was determined by calculating the percentages of the maximum activation identified with Resiquimod or Motolimod.
Molecule `CCCCOc1nc(N)c2ncc(Cc3ccc4c(c3)CCN(C(C)C)C4)n2n1` [Compound A8, 2-butoxy-7-((2-isopropyl-1,2,3,4-tetrahydroisoquinolin-6-yl)methyl)imidazo[2,1-f][1,2,4]triazin-4-amine] has an EC50 of 187 nM.
`CCCCOc1nc(N)c2ncc(Cc3ccc(CN4CCNCC4)cc3)n2n1` [Compound A10, 2-butoxy-7-(4-(piperazin-1-ylmethyl)benzyl)imidazo[2,1-f][1,2,4]triazin-4-amine] was tested, and the EC50 was 572 nM.
`CCCCOc1nc(N)c2ncc(Cc3ccc(CN4CCC(N)CC4)cc3)n2n1` [Compound A43, 7-(4-((4-aminopiperidin-1-yl)methyl)benzyl)-2-butoxyimidazo[2,1-f][1,2,4]triazin-4-amine] showed an EC50 of 255 nM.
